Assay [1] has as its system Burkholderia cepacia J2315. Nature of the assay: MIC by standard broth dilution. In kind it is cell-based. Conditions: Table S1. The procedure: (§1) Pseudomonas aeruginosa strain PAO1 (P. aeruginosa) was grown in M9 minimal medium (1.0 g/L NH4Cl, 0.5 g/L NaCl, 6.0 g/L Na2HPO4, 3.0 g/L KH2PO4) supplemented with 1.0 mM MgSO4, 1.0 mM ZnSO4, 0.2 mM CaCl2, 0.4% (w/v) glucose and 0.2% (w/v) casein hydrolysate. Gram-negative Escherichia coli strain K-12 (E. coli) and Burkholderia cepacia J2315 (B. cepacia) were cultured in Luria-Bertani (LB) medium (5 g/L yeast extract, 10 g/L tryptone, 10 g/L sodium chloride). The Gram-positive Staphylococcus aureus strain Newman (S. aureus) was grown in Tryptic Soy Broth (TSB) medium (17 g/L Tryptone, 3 g/L Phytone, 5 g/L sodium chloride, 2.5 g/L dipotassium phosphate and glucose 2.5 g/L).
(§2) The minimal inhibitory concentration (MIC) values of the gallium compounds were determined using a standard broth dilution method as described previously ([Wiegand et al., 2008]). In brief, the compounds were two-fold serially diluted to concentrations from 400 to 1.56 μM. Approximately 50 μL of the compound solution was added to a 96-well microtiter plate and mixed with 50 μL of bacteria culture in log phase (10^6 CFU/ml). The bacterial culture was further incubated at 37°C for 22–24 h. The OD600 values for each well was recorded on a microplate reader. The MICs value was defined as the lowest compound concentration that inhibited 95% of the bacterial growth.
On the technique in general: Dilution methods test growth across graded concentrations, often in twofold steps.

Assay [2] concerns Escherichia coli MG16552. Nature of the assay: MIC by standard broth dilution. In kind it is cell-based. The settings on record: Table S1. On the procedure: as §1, §2
For assay [3], the system named is Pseudomonas aeruginosa strain PAO1. Nature of the assay: MIC by standard broth dilution. In kind it is cell-based. Conditions: read-out: MIC. On the procedure:
as §1, §2

Assay [4] has as its system Staphylococcus aureus Newman. Nature of the assay: MIC by standard broth dilution. In kind it is cell-based. The settings on record: Table S1. The procedure:
as §1, §2

Assay [5] has as its system P. aeruginosa. Nature of the assay: Bacterial growth curves. The settings on record: growth curves. Type of assay: cell-based, Pseudomonas aeruginosa. On the procedure:
as §1

Assay [6] concerns P. aeruginosa. Nature of the assay: Drug resistance development assay (serial passage). Type of assay: cell-based, Pseudomonas aeruginosa. The settings on record: serial passage at sub-lethal concentrations over 14 days. The procedure: Development of resistance to the Au1 compound and the antibiotics (ciprofloxacin and tobramycin) were assessed as described by [Habets and Brockhurst (2012)]. The MIC assay was performed on the first day as described above. […] Thereafter, a new passage MIC measurement assay was prepared using diluted bacterial cells grown at 0.5-fold MIC suspension. This was repeated for 14 passages and the MIC values for Au1, ciprofloxacin and tobramycin were recorded for each passage.

Assay [7] relates to pyocyanin. Nature of the assay: Quantification of secreted pyocyanin. Type of assay: cell-based, Pseudomonas aeruginosa. The settings on record: 15 μM; 24 h. The procedure:
(§3) To quantify the secreted virulence factors, overnight P. aeruginosa PAO1 was diluted in fresh M9 medium and cultured to a final OD600 value of 0.15. Then Au1 or auranofin were added into culture with indicated concentrations. After 24 h incubation at 37°C, the bacterial supernatants were collected by centrifugation at 4,000 g for 10 min at 4°C and filtered using a 0.22 μm syringe filter (Millipore). The secreted virulence factors in the supernatant were quantified by the methods described below.
The bacterial secreted pyocyanin was quantified as described previously ([Essar et al., 1990]). Approximately 10 ml bacterial supernatant medium was collected by centrifugation. Subsequently, 3 ml chloroform was added into medium to extract the pyocyanin. The pyocyanin was re-extracted into 1 ml of 0.2 M HCl to give a pink to deep red solution after approximately 30 min. The pyocyanin concentration was determined by measurement the absorbance at 520 nm.

Assay [8] has as its system LasA protease. Nature of the assay: LasA protease detection (azocasein). The settings on record: 15 μM; 24 h. Type of assay: cell-based, Pseudomonas aeruginosa. On the procedure:
as §3
For LasA protease detection, 5 μL of filtered supernatant was mixed with 1 ml of 0.5% azocasein (Sigma-Aldrich) in reaction buffer (50 mM Tris-HCl, 0.5 mM CaCl2, pH 7.5). The mixture was incubated at 37°C for 15 min. After reaction, 500 μL of 10% trichloroacetic (TCI Shanghai) acid was added and incubated for 30 min at room temperature. After centrifugation at 10,000 g for 20 min, the 440 nm absorbance of the collected supernatant was measured to quantify the secreted LasA protease.

The subject of assay [9] is P. aeruginosa. Nature of the assay: Time-course of bacterial membrane permeation, propidium iodide microplate. The settings on record: 50 μM; 37°C. Type of assay: cell-based, Pseudomonas aeruginosa. On the procedure: Overnight P. aeruginosa culture was diluted 1:100 with fresh M9 medium and grown to early-mid exponential phase (OD600 = 0.4–0.6). The culture was then diluted 1:10 into PBS and treated with the 50 μM concentration of Au1 or auranofin for 30 min. Then the bacteria were incubated with propidium iodide (PI), a dye that is excluded from cells with impermeable membrane. The CytoFLEX flow cytometry (Beckman Coulter) was used to measure the bacterial fluorescent intensities and the data was analyzed using CytExpert 2.4 software. For the time-course detection of the bacterial permeability induced by Au1 or auranofin, P. aeruginosa in early-mid exponential phase (OD600 = 0.2) was incubated with PI dye on a 96-well plate. Au1 or auranofin was added to a final concentration of 50 μM. The fluorescence signal (561 nm excitation, 590 nm emission) and OD600 value were recorded on Cytation5 microplate reader. Each experiment was performed in triplicates.

Read-outs that look alike come from different tables or passages of the source.

Broadly, the MIC is the least concentration at which growth counts as inhibited. NHC^Me-Au-Cl [Au1]: the MIC in [1] is 25 µM; in assay [2] it was below 1.56 µM; in assay [3] (P. aeruginosa PAO1, lowest concentration inhibiting 95% of growth, 22–24 h, Table 1) it was 25 µM; in assay [3] (Pseudomonas aeruginosa PAO1, Table S1) it was 25 µM; in [4], below 1.56 µM. Further, the “concentration at which P. aeruginosa growth was completely inhibited” value in assay [5] turned out to be 20 µM. For the same substance, in [6], the development of resistance entry was “not observed”. Further, the pyocyanin secretion entry in assay [7] was “almost completely inhibited”. Further, in [8], the “decrease of LasA protease secretion” value worked out at 54%. The “time to initiation of bacterial membrane rupture” value in [9] is recorded as 1.5 h.

(Values after publication PMC9096233, “Identification of an Au(I) N-Heterocyclic Carbene Compound as a Bactericidal Agent Against Pseudomonas aeruginosa” (Frontiers in Chemistry, 2022).)
